Test results from ChEMBL document CHEMBL3774333, “Identification of SNAIL1 Peptide-Based Irreversible Lysine-Specific Demethylase 1-Selective Inactivators” (J Med Chem, 2016).
Each block holds one molecule with its values, some of them ahead of it. Activity calls are given as the source filed them. The rule behind the calls is not given here. *1 amine or outer side, *2 acyl side, *3 side chain or, on linkers, in order; H or OH if unused. Where a SMILES comes first, the peptide text is derived from it. [ ]: non-standard residue; d: D form. X2 = CNNCCC[C@H](N[*:1])C(=O)[*:2]

Legend:
[1] = target: T1, Lysine-specific histone demethylase 1A (Homo sapiens, UniProt O60341); assay: biochemical
Description: Inhibition of full length N-terminal His-tagged human recombinant LSD1 (1 to 852 residues) expressed in Escherichia coli BL21(DE3) cells using H3K4me2 peptide as substrate preincubated for 5 mins followed by substrate addition measured for 30 mins by peroxidase coupled assay

[2] = system: HeLa; assay: Antiproliferative activity against human HeLa cells assessed as reduction in cell viability at 100 uM treated for 24 hrs measured after 48 hrs by alamar blue assay in absence of fetal bovine serum; assay type: functional, cell-based
[3] = target: T1, Lysine-specific histone demethylase 1A; assay: Inhibition of LSD1 in human HeLa cells assessed as H3K4me2/H3 ratio at 20 uM after 24 hrs by Western blot analysis in absence of fetal bovine serum; assay type: cell-based
[4] = system: HeLa; assay: Antiproliferative activity against human HeLa cells assessed as reduction in cell viability at 300 uM treated for 24 hrs measured after 48 hrs by alamar blue assay in absence of fetal bovine serum relative to control; assay type: functional
[5] = target: T2, Amine oxidase [flavin-containing] A (Homo sapiens, UniProt P21397); assay: biochemical
T2 sequence (P21397 whole entry): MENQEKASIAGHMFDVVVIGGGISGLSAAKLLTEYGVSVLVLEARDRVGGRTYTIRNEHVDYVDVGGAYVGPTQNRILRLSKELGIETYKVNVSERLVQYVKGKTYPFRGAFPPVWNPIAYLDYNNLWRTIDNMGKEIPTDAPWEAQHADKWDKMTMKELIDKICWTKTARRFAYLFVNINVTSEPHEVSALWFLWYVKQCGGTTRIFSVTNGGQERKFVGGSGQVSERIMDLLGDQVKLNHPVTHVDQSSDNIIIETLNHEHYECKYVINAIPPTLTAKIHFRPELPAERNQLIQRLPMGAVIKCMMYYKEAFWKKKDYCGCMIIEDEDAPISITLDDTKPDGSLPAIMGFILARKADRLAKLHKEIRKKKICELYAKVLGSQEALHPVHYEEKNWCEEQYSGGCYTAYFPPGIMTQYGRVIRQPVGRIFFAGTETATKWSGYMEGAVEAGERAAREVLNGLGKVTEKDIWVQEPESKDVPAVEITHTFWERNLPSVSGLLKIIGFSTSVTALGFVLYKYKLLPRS
Description: Inhibition of human recombinant MAO-A expressed in baculovirus infected BTI insect cells using (4S)-4,5-dihydro-2-(6-hydroxybenzothiazolyl)-4-thiazolecarboxylic acid as substrate incubated for 60 mins by MAO-Glo assay

[6] = target: T3, Lysine-specific histone demethylase 2 (Homo sapiens, UniProt Q8NB78); assay: biochemical
T3 sequence (Q8NB78 whole entry): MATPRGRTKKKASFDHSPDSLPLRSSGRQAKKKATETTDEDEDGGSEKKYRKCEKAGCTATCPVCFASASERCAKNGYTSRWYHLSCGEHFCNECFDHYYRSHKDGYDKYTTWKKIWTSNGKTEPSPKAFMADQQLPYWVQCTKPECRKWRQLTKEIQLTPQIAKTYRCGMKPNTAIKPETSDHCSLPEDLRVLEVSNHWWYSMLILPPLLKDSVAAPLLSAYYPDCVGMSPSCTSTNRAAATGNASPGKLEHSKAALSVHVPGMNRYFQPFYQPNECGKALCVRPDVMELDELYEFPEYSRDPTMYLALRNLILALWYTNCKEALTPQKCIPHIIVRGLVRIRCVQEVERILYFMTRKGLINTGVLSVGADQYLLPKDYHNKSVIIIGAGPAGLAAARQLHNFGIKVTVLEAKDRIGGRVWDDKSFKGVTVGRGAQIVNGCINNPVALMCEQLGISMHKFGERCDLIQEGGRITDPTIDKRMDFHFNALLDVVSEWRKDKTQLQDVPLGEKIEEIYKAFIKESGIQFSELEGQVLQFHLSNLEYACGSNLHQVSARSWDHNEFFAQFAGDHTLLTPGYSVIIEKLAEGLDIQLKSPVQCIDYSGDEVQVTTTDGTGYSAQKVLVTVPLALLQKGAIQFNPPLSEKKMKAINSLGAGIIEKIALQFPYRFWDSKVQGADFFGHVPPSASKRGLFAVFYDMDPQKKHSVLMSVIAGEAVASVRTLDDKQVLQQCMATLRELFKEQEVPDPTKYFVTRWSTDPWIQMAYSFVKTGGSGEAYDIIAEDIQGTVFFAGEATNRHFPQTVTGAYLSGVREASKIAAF
Description: Inhibition of full length N-terminal His-tagged human LSD2 (1 to 822 residues) expressed in Escherichia coli BL21(DE3) cells using H3K4me2 peptide substrate by MALDI-TOF mass spectrometric analysis

[7] = target: T4, Lysine-specific demethylase 5A (Homo sapiens, UniProt P29375)
T4 sequence (P29375 whole entry): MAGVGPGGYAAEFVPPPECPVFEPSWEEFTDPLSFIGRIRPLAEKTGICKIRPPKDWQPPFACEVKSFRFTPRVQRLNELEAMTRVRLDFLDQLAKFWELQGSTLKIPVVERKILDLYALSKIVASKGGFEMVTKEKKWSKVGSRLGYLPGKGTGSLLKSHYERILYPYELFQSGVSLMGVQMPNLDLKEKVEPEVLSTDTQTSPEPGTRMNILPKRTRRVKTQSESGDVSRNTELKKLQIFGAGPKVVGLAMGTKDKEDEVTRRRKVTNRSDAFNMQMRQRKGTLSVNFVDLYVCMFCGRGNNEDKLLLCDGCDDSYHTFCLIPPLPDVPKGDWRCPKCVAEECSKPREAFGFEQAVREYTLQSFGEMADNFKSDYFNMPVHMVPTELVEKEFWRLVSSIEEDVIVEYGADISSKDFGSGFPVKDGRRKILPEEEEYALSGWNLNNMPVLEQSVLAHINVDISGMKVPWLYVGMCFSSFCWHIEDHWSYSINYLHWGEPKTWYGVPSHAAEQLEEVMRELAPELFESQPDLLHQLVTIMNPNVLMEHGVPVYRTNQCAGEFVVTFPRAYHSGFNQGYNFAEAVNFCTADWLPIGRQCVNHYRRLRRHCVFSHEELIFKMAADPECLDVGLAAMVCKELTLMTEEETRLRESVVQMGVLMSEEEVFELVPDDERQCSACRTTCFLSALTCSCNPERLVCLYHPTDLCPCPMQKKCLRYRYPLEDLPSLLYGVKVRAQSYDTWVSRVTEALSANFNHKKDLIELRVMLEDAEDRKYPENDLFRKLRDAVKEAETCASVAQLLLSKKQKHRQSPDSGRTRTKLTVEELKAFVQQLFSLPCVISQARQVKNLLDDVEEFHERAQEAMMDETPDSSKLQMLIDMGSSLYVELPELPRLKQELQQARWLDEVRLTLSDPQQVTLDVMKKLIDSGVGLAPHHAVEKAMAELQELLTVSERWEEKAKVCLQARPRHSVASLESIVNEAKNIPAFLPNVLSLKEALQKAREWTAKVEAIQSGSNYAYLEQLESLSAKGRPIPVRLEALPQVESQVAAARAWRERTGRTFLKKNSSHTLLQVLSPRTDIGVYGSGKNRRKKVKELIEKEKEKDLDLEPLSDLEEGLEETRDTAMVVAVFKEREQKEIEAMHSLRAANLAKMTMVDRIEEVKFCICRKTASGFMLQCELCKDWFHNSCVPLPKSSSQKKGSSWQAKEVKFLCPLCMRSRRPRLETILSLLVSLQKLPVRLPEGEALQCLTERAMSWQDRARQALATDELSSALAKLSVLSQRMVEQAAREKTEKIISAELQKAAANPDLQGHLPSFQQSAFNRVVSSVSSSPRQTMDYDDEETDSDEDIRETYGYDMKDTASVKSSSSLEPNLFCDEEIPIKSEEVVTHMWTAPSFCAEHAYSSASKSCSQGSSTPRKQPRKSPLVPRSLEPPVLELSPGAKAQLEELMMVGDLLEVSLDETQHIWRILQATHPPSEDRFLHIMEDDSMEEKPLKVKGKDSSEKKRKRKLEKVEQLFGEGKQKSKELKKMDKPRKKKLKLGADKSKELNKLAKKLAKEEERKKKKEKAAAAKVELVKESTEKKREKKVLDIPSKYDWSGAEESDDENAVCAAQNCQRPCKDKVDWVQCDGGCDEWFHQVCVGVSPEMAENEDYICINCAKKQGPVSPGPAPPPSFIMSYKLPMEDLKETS
Description: Inhibition of JARID1A (unknown origin) using H3K4me3 peptide substrate preincubated for 5 mins followed by substrate addition by MALDI-TOF mass spectrometric analysis

[8] = target: T1, Lysine-specific histone demethylase 1A; assay: Drug metabolism assessed as LSD1 (unknown origin)-mediated demethylation of compound by measuring (3S,6S,9S,12S)-1-((S)-1-((S)-6-amino-2-((S)-2-((S)-4-amino-2-((S)-1-((S)-3-carboxy-2-((S)-2-((S)-1-((6S,9S,12S,15S,18S,21S,24S)-1,28-diamino-21-(3-guanidinopropyl)-12-(3-hydrazinylpropyl)-9-(hydroxymethyl)-1-imino-15-isobutyl-18-isopropyl-7,10,13,16,19,22-hexaoxo-6-((S)-pyrrolidine-2-carboxamido)-2,8,11,14,17,20,23-heptaazaoctacosanecarbonyl)pyrrolidine-2-carboxamido)-3-hydroxypropanamido)propanoyl)pyrrolidine-2-carboxamido)-4-oxobutanamido)-5-guanidinopentanamido)hexanoyl)pyrrolidin-2-yl)-3-(2-amino-2-oxoethyl)-12-carbamoyl-6-(4-hydroxybenzyl)-9-(hydroxymethyl)-1,4,7,10-tetraoxo-2,5,8,11-tetraazapentadecan-15-oic acid level after 22 hrs by MALDI-TOF mass spectrometric analysis; assay type: ADME
[9] = target: T5, Amine oxidase [flavin-containing] B (Homo sapiens, UniProt P27338); assay: biochemical
T5 sequence (P27338 whole entry): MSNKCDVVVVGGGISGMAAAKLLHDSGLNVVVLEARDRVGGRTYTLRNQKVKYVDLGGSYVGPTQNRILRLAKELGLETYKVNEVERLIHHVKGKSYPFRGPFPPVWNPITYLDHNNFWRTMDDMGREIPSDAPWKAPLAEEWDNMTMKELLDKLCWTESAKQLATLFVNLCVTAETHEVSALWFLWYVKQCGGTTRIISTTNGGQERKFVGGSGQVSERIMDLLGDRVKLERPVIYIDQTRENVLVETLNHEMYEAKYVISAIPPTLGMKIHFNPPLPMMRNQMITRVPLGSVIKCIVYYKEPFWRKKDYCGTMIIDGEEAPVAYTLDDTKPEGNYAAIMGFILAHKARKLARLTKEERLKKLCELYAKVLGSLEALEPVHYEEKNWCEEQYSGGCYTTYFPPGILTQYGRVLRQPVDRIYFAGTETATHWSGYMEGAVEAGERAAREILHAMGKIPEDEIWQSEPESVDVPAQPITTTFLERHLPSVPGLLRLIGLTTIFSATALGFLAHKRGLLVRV
Description: Inhibition of human recombinant MAO-B expressed in baculovirus infected BTI insect cells using (4S)-4,5-dihydro-2-(6-hydroxybenzothiazolyl)-4-thiazolecarboxylic acid as substrate incubated for 60 mins by MAO-Glo assay

[10] = target: T1, Lysine-specific histone demethylase 1A; assay: Drug metabolism assessed as LSD1 (unknown origin)-mediated compound-FAD adduct formation after 22 hrs by MALDI-TOF mass spectrometric analysis in presence of excess of H3K4me2 substrate peptide; assay type: ADME
[11] = target: T4, Lysine-specific demethylase 5A; assay: Inhibition of JARID1A in human HeLa cells assessed as H3K4me3/H3 ratio at 5 uM after 24 hrs by Western blot analysis in absence of fetal bovine serum; assay type: cell-based
[12] = target: T6, Lysine-specific histone demethylase 2 (Homo sapiens) (UniProt Q8NB78); assay: Inhibition of LSD2 in human HeLa cells assessed as H3K4me1/H3 ratio at 20 uM after 24 hrs by Western blot analysis in absence of fetal bovine serum; assay type: cell-based
T6 sequence (whole entry): T3 sequence (Q8NB78 whole entry)

[13] = target: T6, Lysine-specific histone demethylase 2 (Homo sapiens); assay: Inhibition of LSD2 in human HeLa cells assessed as H3K4me1/H3 ratio at 5 uM after 24 hrs by Western blot analysis in absence of fetal bovine serum; assay type: cell-based
[14] = target: T4, Lysine-specific demethylase 5A; assay: Inhibition of JARID1A in human HeLa cells assessed as H3K4me3/H3 ratio at 20 uM after 24 hrs by Western blot analysis in absence of fetal bovine serum; assay type: cell-based
[15] = organism: Homo sapiens
[16] = target: T1, Lysine-specific histone demethylase 1A; assay: Inhibition of LSD1 in human HeLa cells assessed as H3K4me2/H3 ratio at 5 uM after 24 hrs by Western blot analysis in absence of fetal bovine serum; assay type: cell-based
[17] = organism: Homo sapiens; remark: listed apart in the source
[18] = target: T6, Lysine-specific histone demethylase 2 (Homo sapiens); assay: Inhibition of LSD2 in human HeLa cells assessed as H3K4me1/H3 ratio at 10 uM after 24 hrs by Western blot analysis in absence of fetal bovine serum; assay type: cell-based
[19] = organism: Homo sapiens; remark: listed apart in the source
[20] = target: T4, Lysine-specific demethylase 5A; assay: Inhibition of JARID1A in human HeLa cells assessed as H3K4me3/H3 ratio at 10 uM after 24 hrs by Western blot analysis in absence of fetal bovine serum; assay type: cell-based
[21] = organism: Homo sapiens; remark: listed apart in the source
[22] = target: T1, Lysine-specific histone demethylase 1A; assay: Inhibition of LSD1 in human HeLa cells assessed as increase in H3K4me2 level after 24 hrs by Western blot analysis in absence of fetal bovine serum; assay type: cell-based
[23] = target: T1, Lysine-specific histone demethylase 1A; settings: 22 h
[24] = target: T1, Lysine-specific histone demethylase 1A; assay: Inhibition of LSD1 in human HeLa cells assessed as H3K4me2/H3 ratio at 10 uM after 24 hrs by Western blot analysis in absence of fetal bovine serum; assay type: cell-based
[25] = system: HeLa; assay: Antiproliferative activity against human HeLa cells assessed as reduction in cell viability at 25 to 100 uM treated for 24 hrs measured after 48 hrs by alamar blue assay in absence of fetal bovine serum; assay type: functional, cell-based
[26] = target: T1, Lysine-specific histone demethylase 1A; assay: Time dependent irreversible inhibition of human LSD1 using H3K4me2 peptide as substrate at 0.1 to 6.4 uM incubated for 5 mins by fluorometric assay
[27] = target: T1, Lysine-specific histone demethylase 1A; assay: Irreversible inhibition of LSD1 (unknown origin) using H3K4me2 peptide substrate assessed as compound-FAD adduct formation after 22 hrs by MALDI-TOF mass spectrometric analysis

Structure (SMILES): O=C(O)c1ccc(CN2CCC(CN[C@H]3C[C@@H]3c3ccccc3)CC2)cc1
IC50 [1]: 0.61 µM
Activity [2]: inactive
Ratio [3]: 2.03
Activity [4]: 9.96%

Structure (SMILES): CNNCCC[C@H](NC(=O)[C@H](CO)NC(=O)[C@H](CCCNC(=N)N)NC(=O)[C@@H]1CCCN1)C(=O)N[C@@H](CC(C)C)C(=O)N[C@H](C(=O)N[C@@H](CCCNC(=N)N)C(=O)N[C@@H](CCCCN)C(=O)N1CCC[C@H]1C(=O)N[C@@H](CO)C(=O)N[C@@H](CC(=O)O)C(=O)N1CCC[C@H]1C(=O)N[C@@H](CC(N)=O)C(=O)N[C@@H](CCCNC(=N)N)C(=O)N[C@@H](CCCCN)C(=O)N1CCC[C@H]1C(=O)N[C@@H](CC(N)=O)C(=O)N[C@@H](Cc1ccc(O)cc1)C(=O)N[C@@H](CO)C(=O)N[C@@H](CCC(N)=O)C(N)=O)C(C)C (H-PRS[X2]LVRKPSDPNRKPNYSQ-NH2)
IC50 [5]: > 30 µM
IC50 [6]: > 50 µM
IC50 [7]: > 50 µM
IC50 [1]: 8.4 µM
Drug metabolism [8]: metabolite_detected
IC50 [9]: > 30 µM

Structure (SMILES): CC(C)C[C@@H](NC(=O)[C@@H](CCCNN)NC(=O)[C@@H](CO)NC(=O)[C@H](CCCNC(=N)N)NC(=O)[C@@H]1CCCN1)C(=O)N[C@@H](C(=O)N[C@H](CCCNC(=N)N)C(=O)N[C@H](CCCCN)C(=O)N1CCC[C@@H]1C(=O)N[C@H](CO)C(=O)N[C@H](CC(=O)O)C(=O)N1CCC[C@@H]1C(=O)N[C@H](CC(N)=O)C(=O)N[C@H](CCCNC(=N)N)C(=O)N[C@H](CCCCN)C(=O)N1CCC[C@@H]1C(=O)N[C@@H](CC(N)=O)C(=O)N[C@H](Cc1ccc(O)cc1)C(=O)N[C@H](CO)C(=O)N[C@H](CCC(N)=O)C(N)=O)C(C)C
TDI [26]: Active
Ratio [3]: 1.34
inhibition [27]: Active

More lines, in order of falling IC50 [1], values ahead:

IC50 [5]: > 30 µM
IC50 [6]: > 50 µM
IC50 [7]: > 50 µM
IC50 [1]: 0.44 µM
Drug metabolism [10]: metabolite_notdetected
IC50 [9]: > 30 µM
Structure (SMILES): CC(C)C[C@H](NC(=O)[C@H](CCCNN)NC(=O)[C@H](CO)NC(=O)[C@H](CCCNC(=N)N)NC(=O)[C@@H]1CCCN1)C(=O)N[C@H](C(=O)N[C@@H](CCCNC(=N)N)C(=O)N[C@@H](CCCCN)C(=O)N1CCC[C@H]1C(=O)N[C@@H](CO)C(=O)N[C@@H](CC(=O)O)C(=O)N1CCC[C@H]1C(=O)N[C@@H](CC(N)=O)C(=O)N[C@@H](CCCNC(=N)N)C(=O)N[C@@H](CCCCN)C(=O)N1CCC[C@H]1C(=O)N[C@@H](CC(N)=O)C(=O)N[C@@H](Cc1ccc(O)cc1)C(=O)N[C@@H](CO)C(=O)N[C@@H](CCC(N)=O)C(N)=O)C(C)C

Ratio [11]: 1.04
Ratio [12]: 1.08
Ratio [13]: 1.01
IC50 [5]: > 30 µM
Ratio [14]: 0.98
IC50 [6]: 13.2 µM
IC50 [7]: 6.74 µM
IC50 [1]: 0.28 µM
Ratio [16]: 1.72
Ratio [18]: 0.98
IC50 [9]: 29 µM
Ratio [20]: 0.95
Ratio [3]: 2.19
inhibition [22]: Dose-dependent effect
Drug metabolism [23]: metabolite_detected
Ratio [24]: 1.9
Structure (SMILES): CC(C)C[C@H](NC(=O)[C@H](CCCNN)NC(=O)[C@H](CO)NC(=O)[C@@H](CCCNC(=N)N)NC(=O)[C@H]1CCCN1)C(=O)N[C@H](C(=O)N[C@@H](CCCNC(=N)N)C(=O)N[C@@H](CCCCNC(=O)[C@@H](CCCNC(=N)N)NC(=O)[C@@H](CCCNC(=N)N)NC(=O)[C@@H](CCCNC(=N)N)NC(=O)[C@@H](CCCNC(=N)N)NC(=O)[C@@H](CCCNC(=N)N)NC(=O)[C@@H](CCCNC(=N)N)NC(=O)[C@@H](CCCNC(=N)N)NC(=O)[C@@H](N)CCCNC(=N)N)C(=O)N1CCC[C@H]1C(=O)N[C@@H](CO)C(=O)N[C@@H](CC(=O)O)C(=O)N1CCC[C@H]1C(=O)N[C@@H](CC(N)=O)C(=O)N[C@@H](CCCNC(=N)N)C(=O)N[C@@H](CCCCN)C(=O)N1CCC[C@H]1C(=O)N[C@H](CC(N)=O)C(=O)N[C@@H](Cc1ccc(O)cc1)C(=O)N[C@@H](CO)C(=O)N[C@@H](CCC(N)=O)C(N)=O)C(C)C
Ratio IC50 [15]: 16
Ratio IC50 [17]: 94
Ratio IC50 [19]: 23
Ratio IC50 [21]: > 94
Activity [25]: Active
